Test results taken from US8461328B2, “Tricyclic heterocyclic compounds, compositions and methods of use thereof” (Genentech, Inc., priority 2010, dated 2013).

Tests used:
Assay type in all cases: biochemical
JAK2 = target: T1, JAK2 (Homo sapiens, UniProt O60674); assay: JAK2 inhibition (Table 4); conditions: read-out: JAK2 Ki
T1 construct: made in house; host or cells: SF9 insect cells (baculovirus)

TYK2 = target: T2, TYK2 (Homo sapiens, UniProt P29597); assay: TYK2 inhibition (Table 4)
T2 construct: made in house; host or cells: SF9 insect cells (baculovirus)
T2 sequence (P29597 873-1187): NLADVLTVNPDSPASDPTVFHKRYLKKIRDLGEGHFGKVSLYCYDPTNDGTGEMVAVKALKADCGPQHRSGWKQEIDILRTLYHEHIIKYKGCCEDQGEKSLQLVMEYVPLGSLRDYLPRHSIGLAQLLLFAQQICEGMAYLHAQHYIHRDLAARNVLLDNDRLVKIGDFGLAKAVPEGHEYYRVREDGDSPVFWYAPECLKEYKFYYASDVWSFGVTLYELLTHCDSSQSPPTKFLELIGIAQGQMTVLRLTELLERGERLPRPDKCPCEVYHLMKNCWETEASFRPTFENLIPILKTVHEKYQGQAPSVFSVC

JAK1 = target: T3, JAK1 (Homo sapiens, UniProt P23458); assay: JAK1 inhibition (Table 4); conditions: read-out: JAK1 Ki
T3 construct: made in house; host or cells: SF9 insect cells (baculovirus)
T3 sequence (P23458 852-1154): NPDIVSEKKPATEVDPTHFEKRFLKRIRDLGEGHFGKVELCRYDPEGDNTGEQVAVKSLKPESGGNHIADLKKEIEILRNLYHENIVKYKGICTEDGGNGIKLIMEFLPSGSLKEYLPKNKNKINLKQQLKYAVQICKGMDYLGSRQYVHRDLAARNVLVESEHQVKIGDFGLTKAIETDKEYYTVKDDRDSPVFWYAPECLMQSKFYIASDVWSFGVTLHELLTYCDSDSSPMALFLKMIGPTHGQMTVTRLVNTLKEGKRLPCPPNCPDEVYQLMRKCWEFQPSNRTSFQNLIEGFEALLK

JAK3 = target: T4, JAK3 (Homo sapiens, UniProt P52333); assay: JAK3 inhibition (Table 4); conditions: read-out: JAK3 Ki
T4 construct: made in house; host or cells: SF9 insect cells (baculovirus)
T4 sequence (P52333 783-1124): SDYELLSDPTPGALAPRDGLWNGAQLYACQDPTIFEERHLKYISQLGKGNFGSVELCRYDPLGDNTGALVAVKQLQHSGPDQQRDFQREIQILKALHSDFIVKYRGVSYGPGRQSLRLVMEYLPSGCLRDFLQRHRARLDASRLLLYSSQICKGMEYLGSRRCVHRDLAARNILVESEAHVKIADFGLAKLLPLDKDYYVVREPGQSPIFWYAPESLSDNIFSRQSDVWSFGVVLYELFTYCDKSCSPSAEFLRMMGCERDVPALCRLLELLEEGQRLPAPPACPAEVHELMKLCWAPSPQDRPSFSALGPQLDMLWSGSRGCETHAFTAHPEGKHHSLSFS

T1 sequence (O60674 812-1132): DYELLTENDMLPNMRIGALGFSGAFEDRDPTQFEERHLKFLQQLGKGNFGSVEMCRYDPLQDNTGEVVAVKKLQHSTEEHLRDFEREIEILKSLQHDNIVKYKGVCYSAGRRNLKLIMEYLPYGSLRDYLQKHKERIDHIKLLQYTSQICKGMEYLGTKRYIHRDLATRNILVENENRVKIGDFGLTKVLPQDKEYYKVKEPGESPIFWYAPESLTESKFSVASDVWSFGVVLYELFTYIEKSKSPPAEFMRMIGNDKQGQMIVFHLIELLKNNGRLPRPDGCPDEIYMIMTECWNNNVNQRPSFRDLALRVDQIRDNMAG

| Compound | Ki (JAK2) [nM] | Ki (TYK2) [nM] | Ki (JAK1) [nM] | Ki (JAK3) [nM] |
| --- | --- | --- | --- | --- |
| C[C@@H](O)c1nc2cnc3[nH]ccc3c2n1C1CCN(Cc2ccnn2C)CC1 [Example 819, (R)-1-{1-[1-(2-Methyl-2H-pyrazol-3-ylmethyl)-piperidin-4-yl]-1,6-dihydro-1,3,5,6-tetraaza-as-indacen-2-yl}-ethanol] | 61.8 | 161 | 10.9 | 44.9 |
| NC(=O)Cc1nc2cnc3[nH]ccc3c2n1C1CCNCC1 [Example 260, 2-(1-Piperidin-4-yl-1,6-dihydro-1,3,5,6-tetraaza-as-indacen-2-yl)-acetamide] | 847 | 795 | 41.6 | 302 |
| CC(CC#N)N1CCC(n2c(C3CCOC3)nc3cnc4[nH]ccc4c32)CC1 (racemic) [Example 391, 3-{4-[2-(Tetrahydro-furan-3-yl)-6H-1,3,5,6-tetraaza-as-indacen-1-yl]-piperidin-1-yl}-butyronitrile] | 27.1 | 91.9 | 7.53 | 35.8 |
| O=C(Cc1nc2cnc3[nH]ccc3c2n1C1CCN(Cc2ccccc2)CC1)N1CCOCC1 [Example 23, 2-[1-(1-Benzyl-piperidin-4-yl)-1,6-dihydro-1,2,3,5,6-tetraaza-as-indacen-2-yl]-1-morpholin-4-yl-ethanone] | 62.7 | 616 | 6.22 | 9.98 |
| N#CCCN1CCC(n2c(C3CCOCC3)nc3cnc4[nH]ccc4c32)CC1 [Example 385, 3-{4-[2-(Tetrahydro-pyran-4-yl)-6H-1,3,5,6-tetraaza-as-indacen-1-yl]-piperidin-1-yl}-propionitrile] | 68.5 | 1290 | 51.3 | 15.5 |
| CC(C)(C#N)CN1CCC(n2cnc3cnc4[nH]ccc4c32)CC1 [Example 586, 2,2-Dimethyl-3-[4-(6H-1,2,3,5,6-tetraaza-as-indacen-1-yl)-piperidin-1-yl]-propionitrile] | 1.6 | 9.73 | 1.09 | 23.3 |
| O=C(Cc1nc2cnc3[nH]ccc3c2n1C1CCCOC1)N1CCC(O)CC1 (racemic) [Example 986, 1-(4-Hydroxy-piperidin-1-yl)-2-[1-(tetrahydro-pyran-3-yl)-1,6-dihydro-1,3,5,6-tetraaza-as-indacen-2-yl]-ethanone] | 314 | 187 | 17.5 | 171 |
| O=C(NC1CCC(n2cnc3cnc4[nH]ccc4c32)CC1)N1CCC1 (stereo not shown) [Example 746, azetidine-1-carboxylic acid [4-(6H-1,3,5,6-tetraaza-as-indacen-1-yl)-cyclohexyl]-amide] | 21.3 | 75.4 | 13.1 | 183 |
| Cc1nc2cnc3[nH]ccc3c2n1[C@@H](C)CO [Example 422, (S)-2-(2-Methyl-6H-1,3,5,6-tetraaza-as-indacen-1-yl)-propan-1-ol] | 378 | 1230 | 141 | 310 |
| 3-[6-benzenesulfonyl-2-((R)-1-hydroxy-ethyl]-6H-1,3,5,6-tetraaza-as-indecen-1-yl}-cyclohexanecarbonitrile [Example 742] | 66.2 | 11.1 | 9.51 | 36.6 |
| O=C(NC1CCC(n2nnc3cnc4[nH]ccc4c32)C1)OCC(F)(F)F (racemic) [Example 620, Racemic trans [3-(6H-1,2,3,5,6-Pentaaza-as-indacen-1-yl)-cyclopentyl]-carbamic acid 2,2,2-trifluoro-ethyl ester] | 8.15 | 91.4 | 1.64 | 20.5 |
| N#CCC(=O)N1CCC[C@@H](n2nnc3cnc4[nH]ccc4c32)C1 [Example 19, 3-Oxo-3-[(R)-3-(6H-1,2,3,5,6-pentaaza-as-indacen-1-yl)-piperidin-1-yl]propionitrile] | 3.72 | 20.3 | 1.49 | 24.5 |
| CNC(=O)Cc1nc2cnc3[nH]ccc3c2n1C1CCN(Cc2ccccc2)CC1 [Example 21, 2-[1-(1-Benzyl-piperidin-4-yl)-1,6-dihydro-1,2,3,5,6-tetraaza-as-indacen-2-yl]-N-methyl acetamide] | 38.5 | 627 | 9.93 | 37.6 |
| c1cnc(CN2CCC(n3cnc4cnc5[nH]ccc5c43)CC2)cn1 [Example 92, 1-(1-Pyrazin-2-ylmethyl-piperidin-4-yl)-1,6-dihydro-1,3,5,6-tetraaza-as-indacene] | 6.15 | 109 | 3.64 | 25.6 |
| N#CCCN1CCC(n2c(C3CC3(F)F)nc3cnc4[nH]ccc4c32)CC1 (racemic) [Example 404, 3-{4-[2-(2,2-Difluoro-cyclopropyl)-6H-1,3,5,6-tetraaza-as-indacen-1-yl]-piperidin-1-yl}-propionitrile] | 18 | 100 | 7.27 | 29.3 |
| O=C(Cc1ccccc1)N1CC[C@@H](n2cnc3cnc4[nH]ccc4c32)C1 [Example 430, 2-Phenyl-1-[(R)-3-(6H-1,3,5,6-tetraaza-as-indacen-1-yl)-pyrrolidin-1-yl]-ethanone] | 162 | 507 | 58.9 | 1240 |
| C[C@@H](O)c1nc2cnc3[nH]ccc3c2n1[C@H]1CC[C@H](OCC#N)CC1 [Example 639, Trans {4-[2-((R)-1-hydroxy-ethyl)-6H-1,2,3,5,6-tetraaza-as-indacen-1-yl]-cyclohexyloxy}-acetonitrile] | 14.4 | 4.04 | 0.78 | 58.1 |
| NC(=O)Cc1nc2cnc3[nH]ccc3c2n1C1CCN(S(=O)(=O)C2CC2)CC1 [Example 382, 2-[1-(1-Cyclopropanesulfonyl-piperidin-4-yl)-1,6-dihydro-1,3,5,6-tetraaza-as-indacen-2-yl]-acetamide] | 589 | 733 | 134 | 538 |
| O=C(O)C1CC1C(O)c1nc2cnc3[nH]ccc3c2n1C1CCCCC1 (racemic) [Example 942, 2-[(1-Cyclohexyl-1,6-dihydro-1,3,5,6-tetraaza-as-indacen-2-yl)-hydroxy-methyl]-cyclopropanecarboxylic acid] | 200 | 30.5 | 5.09 | 94.1 |
| C[C@@H](O)c1nc2cnc3[nH]ccc3c2n1[C@H]1CC[C@H](C#N)CC1 [Example 641, trans 4-[2-((R)-1-Hydroxy-ethyl)-6H-1,2,3,5,6-tetraaza-as-indacen-1-yl]-cyclohexanecarbonitrile] | 66.5 | 12.4 | 1.87 | 254 |
| CC(O)c1nc2cnc3[nH]ccc3c2n1C1CCNCC1 (racemic) [Example 291] | 854 | 339 | 10.2 | 731 |
| OCCc1nc2cnc3[nH]ccc3c2n1[C@@H]1CCCNC1 [Example 16, 2-((R)-1-Piperidin-3-yl-1,6-dihydro-1,2,3,5,6-tetraaza-as-indacen-2-yl)ethanol] | 680 | 758 | 219 | 1270 |
